Like-named read-outs stand apart in the source and are kept apart here. Bridge positions count the residues as written; N and C are the ends. Square brackets hold non-standard residues; d marks the D form. Peptide text beside a SMILES is read from it. I, II: the chains in the order shown.
Experiments:
[1] = molecular target: T1, mouse kappa opioid receptor (mKOR) (Mus musculus, UniProt P33534); assay: Inhibition of forskolin-stimulated cAMP production in R1.G1 cells (TR-FRET cAMP immunoassay); type: cell-based
T1 construct: a mouse thymoma cell line that expresses only the kappa-opioid receptor and no other opioid receptor subtype; host or cells: R1.G1 mouse thymoma cells
T1 sequence (P33534 whole entry): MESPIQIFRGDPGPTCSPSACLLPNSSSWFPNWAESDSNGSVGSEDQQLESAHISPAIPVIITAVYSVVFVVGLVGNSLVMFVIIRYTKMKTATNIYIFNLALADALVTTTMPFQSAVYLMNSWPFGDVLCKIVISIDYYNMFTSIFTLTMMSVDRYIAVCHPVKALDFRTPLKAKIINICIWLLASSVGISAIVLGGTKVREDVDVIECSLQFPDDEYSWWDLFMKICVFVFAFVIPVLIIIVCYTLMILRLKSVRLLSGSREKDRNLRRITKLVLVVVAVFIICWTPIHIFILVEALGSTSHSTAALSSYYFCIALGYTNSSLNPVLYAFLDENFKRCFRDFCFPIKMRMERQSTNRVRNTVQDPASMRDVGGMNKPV

[2] = molecular target: T2, human kappa opioid receptor (hKOR) (Homo sapiens, UniProt P41145); assay: NFAT-luciferase reporter assay in HEK-293 cells transfected with human kappa opioid receptor and chimeric G-protein; type: cell-based; conditions: for EC50: transfected HEK-293 cells, luciferase reporter
T2 construct: expressed in transfected cells; host or cells: HEK-293 cells (ATCC), transient transfection with pcDNA3-hOPRK1
T2 sequence (P41145 whole entry): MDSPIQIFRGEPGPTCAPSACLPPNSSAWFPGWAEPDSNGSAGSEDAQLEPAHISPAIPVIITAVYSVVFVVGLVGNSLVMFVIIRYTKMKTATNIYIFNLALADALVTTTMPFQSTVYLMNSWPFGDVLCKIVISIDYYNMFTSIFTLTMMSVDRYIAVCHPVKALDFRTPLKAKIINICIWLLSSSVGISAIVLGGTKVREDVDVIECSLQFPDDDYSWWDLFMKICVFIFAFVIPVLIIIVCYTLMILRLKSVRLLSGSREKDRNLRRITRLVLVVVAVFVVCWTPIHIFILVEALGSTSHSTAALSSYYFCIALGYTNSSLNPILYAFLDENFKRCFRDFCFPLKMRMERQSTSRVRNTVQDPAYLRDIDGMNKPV

[3] = percent maximal activation compared to full induction by known kappa agonists
[4] = HEK293, percent maximal activation compared to full induction by known kappa agonists, read-out: hKOR Efficacy(%)
[5] = read-out: mKOR Efficacy(%), R1.G1 cells
[6] = R1.G1 cells, read-out: mKOR Efficacy(%)

Row | SMILES | mKOR Efficacy(%) ([1]; R1.G1 cells) | hKOR Efficacy(%) [2, 3] [%] | EC50 ([2]; read-out: hKOR EC50) [nM] | also measured
1 | CC(C)C[C@@H](NC(=O)[C@@H](Cc1ccccc1)NC(=O)[C@H](N)Cc1ccccc1)C(=O)N[C@H](CCCN)C(=O)N1CCC(N2CCC[C@H]2C(=O)O)CC1 [Compound 10, D-Phe-D-Phe-D-Leu-D-Orn-[N-(4-piperidinyl)-L-proline]-OH] | 99 | 92 | 0.12 | –
2 | CC(C)C[C@@H](NC(=O)[C@@H](Cc1ccccc1)NC(=O)[C@H](N)Cc1ccccc1)C(=O)N[C@H](CCCN)C(=O)N1CCC(CCCC(=O)O)CC1 [Compound 12, D-Phe-D-Phe-D-Leu-D-Orn-[4-(4-piperidinyl)-butanoic acid]-OH] | 100 | – | 0.3 | Emax [2, 4]: 99%
3 | CCN1CCCN(C(=O)[C@@H](CCCN)NC(=O)[C@@H](CC(C)C)NC(=O)[C@@H](Cc2ccccc2)NC(=O)[C@H](N)Cc2ccccc2)CC1 [Compound 18, D-Phe-D-Phe-D-Leu-D-Orn-[4-ethylhomopiperazine amide]] | 99 | – | – | Emax [2, 4]: 99%
4 | CC(C)C[C@@H](NC(=O)[C@@H](Cc1ccccc1)NC(=O)[C@H](N)Cc1ccccc1)C(=O)N[C@H](CCCCN)C(=O)N1CCS(=O)(=O)CC1 [Compound 34, D-Phe-D-Phe-D-Leu-D-Lys-[thiolmorpholine-1,1-dioxide amide]] | 89 | 103 | – | –
5 | CC(C)C[C@@H](NC(=O)[C@@H](Cc1ccccc1)NC(=O)[C@H](N)Cc1ccccc1)C(=O)N[C@H](CCCCN)C(=O)N1CCN(c2cnccn2)CC1 [Compound 27, D-Phe-D-Phe-D-Leu-D-Lys-[2-(piperazin-1-yl)pyrazine amide]] | 85 | 100 | – | –
6 | CC(C)C[C@@H](NC(=O)[C@@H](Cc1ccccc1)NC(=O)[C@H](N)Cc1ccccc1)C(=O)N[C@H](CCCCN)C(=O)N1CCN(C(=O)c2ccccc2)CC1 [Compound 33, D-Phe-D-Phe-D-Leu-D-Lys-[phenyl(piperazin-1-yl)methanone amide]] | 92 | 94 | – | –
7 | CC(C)C[C@@H](NC(=O)[C@@H](Cc1ccccc1)NC(=O)[C@H](N)Cc1ccccc1)C(=O)N[C@H](CCCCN)C(=O)N1CCN(c2ncccn2)CC1 [Compound 26, D-Phe-D-Phe-D-Leu-D-Lys-[2-(piperazin-1-yl)pyrimidine amide]] | 78 | 98 | – | –
8 | CC(C)C[C@@H](NC(=O)[C@@H](Cc1ccccc1)NC(=O)[C@H](N)Cc1ccccc1)C(=O)N[C@H](CCCN)C(=O)N1CCC(CC(N)C(=O)O)CC1 (stereo partly drawn) [Compound 7, D-Phe-D-Phe-D-Leu-D-Orn-[ω(D/L-2-Amino-3-(4-N-piperidinyl)propionic acid)]-OH] | 102 | 104 | 0.14 | –
9 | CC(C)C[C@@H](NC(=O)[C@H](N)Cc1ccccc1)C(=O)N[C@H](CCCN)C(=O)N[C@@H](CCCCNC(=O)[C@@H](CCCN)NC(=O)[C@@H](CC(C)C)NC(=O)[C@@H](Cc1ccccc1)NC(=O)[C@H](N)Cc1ccccc1)C(=O)O [Compound 41] | 100 | 89 | – | EC50 ([2]; hKOR EC50 (nM)): 0.2 nM
10 | CC(C)C[C@@H](NC(=O)[C@@H](Cc1ccccc1)NC(=O)[C@H](N)Cc1ccccc1)C(=O)N[C@H](CCCCN)C(=O)N1CCN(S(=O)(=O)N(C)C)CC1 [Compound 30, D-Phe-D-Phe-D-Leu-D-Lys-[N,N-dimethylpiperazine-1-sulfonamide amide]] | 86 | 101 | – | –
11 | CC(C)C[C@@H](NC(=O)[C@H](N)Cc1ccccc1)C(=O)N[C@H](CCCN)C(=O)N[C@@H](CCCCNC(=O)[C@@H](CCCN)NC(=O)[C@@H](CC(C)C)NC(=O)[C@@H](Cc1ccccc1)NC(=O)[C@H](N)Cc1ccccc1)C(=O)O [Compound 40] | – | – | – | Emax [1, 5]: 96%; Emax ([2]; HEK293, read-out: hKOR Efficacy(%), percent maximal activation compared to full induction by known kappa agonists): 83%; EC50 ([2]; hKOR EC50 (nM)): 0.26 nM
12 | CC(C)C[C@@H](NC(=O)[C@@H](Cc1ccccc1)NC(=O)[C@H](N)Cc1ccccc1)C(=O)N[C@H](CCCN)C(=O)N1CCC(N2CCC[C@H]2C(N)=O)CC1 [Compound 14, D-Phe-D-Phe-D-Leu-D-Orn-[N-(4-piperidinyl)-L-proline]-NH2] | 96 | – | 0.21 | Emax [2, 4]: 105%
13 | CC(C)C[C@@H](NC(=O)[C@@H](Cc1ccccc1)NC(=O)[C@H](N)Cc1ccccc1)C(=O)N[C@H](CCCCN)C(=O)N1CCN(S(=O)(=O)c2ccccc2)CC1 [Compound 32, D-Phe-D-Phe-D-Leu-D-Lys-[1-(phenylsulfonyl)piperazine amide]] | 87 | 101 | – | –
14 | CC(C)C[C@@H](NC(=O)[C@@H](Cc1ccccc1)NC(=O)[C@H](N)Cc1ccccc1)C(=O)N[C@H](CCCN)C(=O)NCCCC[C@H](NC(=O)[C@H](N)CCCN)C(=O)N1CCNCC1 [Compound 44] | – | – | 0.25 | EC50 ([1]; R1.G1 cells, inhibition of forskolin-stimulated cAMP, read-out: mKOR EC50): 1.3 nM; Emax [1, 6]: 91%; Emax [2, 4]: 93%
15 | CC(C)C[C@@H](NC(=O)[C@@H](Cc1ccccc1)NC(=O)[C@H](N)Cc1ccccc1)C(=O)N[C@H](CCCN)C(=O)N1CCNC(C(=O)O)C1 (stereo partly drawn) [Compound 8, D-Phe-D-Phe-D-Leu-D-Orn-[omega(D/L-piperazine-2-carboxylic acid)]-OH] | 102 | 93 | 0.16 | –
16 | CC(C)C[C@@H](NC(=O)[C@@H](Cc1ccccc1)NC(=O)[C@H](N)Cc1ccccc1)C(=O)N[C@H](CCCN)C(=O)NCCN1CCN(CC(=O)O)CC1 [Compound 1, D-Phe-D-Phe-D-Leu-D-Orn-[4-(2-aminoethyl)-1-carboxymethyl-piperazine]-OH] | 98 | 102 | 0.49 | –
17 | CC(C)C[C@@H](NC(=O)[C@@H](Cc1ccccc1)NC(=O)[C@H](N)Cc1ccccc1)C(=O)N[C@H](CCCNC(C)C)C(=O)N1CCC(N)(C(=O)O)CC1 [Compound 20, D-Phe-D-Phe-D-Leu-(δ-iPr)D-Orn-[omega(4-Aminopiperidine-4-carboxylic acid)]-OH] | 92 | – | 0.15 | Emax [2, 4]: 97%
18 | CNC(=N)N1CCCN(C(=O)[C@@H](CCCN)NC(=O)[C@@H](CC(C)C)NC(=O)[C@@H](Cc2ccccc2)NC(=O)[C@H](N)Cc2ccccc2)CC1 [Compound 19, D-Phe-D-Phe-D-Leu-D-Orn-[4-(N-methyl)amidinohomopiperazine amide]] | 101 | – | 0.21 | Emax [2, 4]: 93%
19 | CC(C)C[C@@H](NC(=O)[C@@H](Cc1ccccc1)NC(=O)[C@H](N)Cc1ccccc1)C(=O)N[C@H](CCCCN)C(=O)N1CCN(S(C)(=O)=O)CC1 [Compound 31, D-Phe-D-Phe-D-Leu-D-Lys-[1-(methylsulfonyl)piperazine amide]] | 82 | 100 | – | –
20 | Cc1cnc(CNC(=O)[C@@H](CCCCN)NC(=O)[C@@H](CC(C)C)NC(=O)[C@@H](Cc2ccccc2)NC(=O)[C@H](N)Cc2ccccc2)cn1 [Compound 38] | – | – | – | Emax [1, 6]: 87%; Emax [2, 4]: 100%
21 | CC(C)C[C@@H](NC(=O)[C@@H](Cc1ccccc1)NC(=O)[C@H](N)Cc1ccccc1)C(=O)N[C@H](CCCCN)C(=O)NCC1OCCO1 [Compound 25] | 85 | 98 | – | –
22 | CC(C)C[C@@H](NC(=O)[C@@H](Cc1ccccc1)NC(=O)[C@H](N)Cc1ccccc1)C(=O)N[C@H](CCCNC(C)C)C(=O)NC1(C(=O)O)CCN(C(=O)[C@@H](CCCNC(C)C)NC(=O)[C@@H](CC(C)C)NC(=O)[C@@H](Cc2ccccc2)NC(=O)[C@H](N)Cc2ccccc2)CC1 [Compound 49] | – | – | – | Emax [1, 5]: 50%
23 | CC(C)C[C@@H](NC(=O)[C@@H](Cc1ccccc1)NC(=O)[C@H](N)Cc1ccccc1)C(=O)N[C@H](CCCN)C(=O)N[C@@H]1CN[C@H](C(=O)O)C1 [Compound 5, D-Phe-D-Phe-D-Leu-D-Orn-[(2S,4S)-4-Amino-pyrrolidine-2-carboxylic acid]-OH] | 96 | – | – | –
24 | CC(C)C[C@@H](NC(=O)[C@@H](Cc1ccccc1)NC(=O)[C@H](N)Cc1ccccc1)C(=O)N[C@H](CCCNC(C)C)C(=O)N1CCCN(C(=N)N)CC1 [Compound 22, D-Phe-D-Phe-D-Leu-(δ-iPr)D-Orn-[4-Amidinohomopiperazine amide]] | 97 | – | – | –
25 | CC(C)C[C@@H](NC(=O)[C@@H](Cc1ccccc1)NC(=O)[C@H](N)Cc1ccccc1)C(=O)N[C@@H]1CCCCNC(=O)CNC(=O)[C@H](NC(=O)[C@@H](CC(C)C)NC(=O)[C@@H](Cc2ccccc2)NC(=O)[C@H](N)Cc2ccccc2)CCCCNC(=O)CNC1=O [Compound 52, D-Phe-D-Phe-D-Leu-(D-Lys-GlyLactam)2-D-Leu-D-Phe-D-Phe] (I: H-[dF][dF][dL][dK]G / II: H-[dF][dF][dL][dK]G; amide I:4-II:C, I:C-II:4 (inferred); N-terminus assumed) | – | – | – | Emax [1, 5]: 76%

Source: patent US20140357579A1, “SYNTHETIC PEPTIDE AMIDES AND DIMERS THEREOF” (priority 2006, published 2014)
